Patent publication US20210395313A1, “PEPTIDE PAC1 ANTAGONISTS” (AMGEN INC., priority 2017, published 2021)
Where a SMILES comes first, the peptide text is derived from it. Bridges are numbered along the chain shown (N, C = ends). Where no end group is shown, it is not given here.

Tests used:
human PAC1 receptor = target: T1, human PAC1 receptor (Homo sapiens, UniProt P41586); assay: LANCE Ultra cAMP accumulation antagonist assay in SHSY-5Y cells; format: cell-based;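 note: inhibition of cAMP accumulation evoked by PAC1 agonist at its EC80 in SHSY-5Y cells endogenously expressing receptor, 30 min preincubation then 15 min agonist, TR-FRET readout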
T1 construct: SHSY-5Y (human neuroblastoma cell line) and RG-2 (rat glioma cell line) cells endogenously express human and rat PAC1 receptors, respectively; endogenous in cells; host or cells: SHSY-5Y human neuroblastoma cells
T1 sequence (P41586 21-468): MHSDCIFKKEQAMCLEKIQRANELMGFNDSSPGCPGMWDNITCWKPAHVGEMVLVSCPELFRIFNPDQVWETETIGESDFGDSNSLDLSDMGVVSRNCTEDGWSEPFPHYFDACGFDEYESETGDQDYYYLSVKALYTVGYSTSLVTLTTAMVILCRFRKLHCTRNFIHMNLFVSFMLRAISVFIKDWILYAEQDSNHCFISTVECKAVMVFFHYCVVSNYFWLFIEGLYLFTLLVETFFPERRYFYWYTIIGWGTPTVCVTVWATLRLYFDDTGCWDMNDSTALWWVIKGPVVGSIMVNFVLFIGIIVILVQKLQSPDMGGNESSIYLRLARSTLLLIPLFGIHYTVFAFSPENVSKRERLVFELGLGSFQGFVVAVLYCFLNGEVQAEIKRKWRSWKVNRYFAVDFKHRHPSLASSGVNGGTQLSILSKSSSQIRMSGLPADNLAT
Description: In order to determine the potency of peptide antagonists at the PAC1 receptor, functional cAMP accumulation assays using LANCE Ultra cAMP assay kit to measure the agonist and antagonist activity of PAC1 peptides were used. SHSY-5Y (human neuroblastoma cell line) and RG-2 (rat glioma cell line) cells endogenously express human and rat PAC1 receptors, respectively. Agonist activity of PAC1 peptides was tested by incubating with SHSY-5Y at 2,000 cells per well or RG-2 at 5,000 cells per well for 15 minutes at room temperature. PAC1 receptor agonist PACAP38 or maxadilan was included as a positive control. The reaction was stopped by adding detection mixture, europium (Eu) chelate-labeled cAMP tracer and cAMP-specific monoclonal antibodies labeled with the ULight™ dye, to all wells followed by a 60-minute incubation at room temperature. The assay plates were then read on an EnVision instrument at an emission wavelength of 665 and 615 nm and data were analyzed using Genedata Screener or GraphPad Prism software. A similar procedure was used in the antagonist assays by using a fixed concentration of PAC1 agonist. The concentrations of agonists were chosen based on their ECK) values at PAC1 receptors in SHSY-5Y or RG-2 cells. SHSY-5Y or RG-2 cells were added into 96-well half-area white plates. Serially diluted PAC1 peptides at ten concentrations were added and incubated for 30 minutes at room temperature. PAC1 agonist at EC80 concentration was then added and further incubated for 15 minutes at room temperature. The reaction was stopped by adding detection mixture to all wells followed by a 60-minute incubation at room temperature. The assay plates were read and analyzed the same way as that of agonist assay. Cells, agonists, and PAC1 peptides were prepared in freshly made assay buffer (F-12, 0.5 mM IBMX, 0.1 or 0.4% BSA (pH 7.4)). Detection mixture was made by mixing a 1/50 dilution of the Eu-cAMP tracer stock solution in cAMP Detection Buffer and a 1/150 dilution of the ULight-anti-cAMP stock solution in cAMP Detection Buffer. Europium (Eu) chelate-labeled cAMP tracer, cAMP-specific monoclonal antibodies labeled with the ULight™ dye, BSA, and detection buffer were provided in LANCE Ultra cAMP Kit from PerkinElmer

rat PAC1 receptor = target: T2, rat PAC1 receptor (Rattus norvegicus, UniProt P32215); assay: LANCE Ultra cAMP accumulation antagonist assay in RG-2 cells; format: cell-based;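 note: RG-2 rat glioma cells endogenously expressing PAC1, test peptide preincubated 30 min, then PAC1 agonist added at its EC80 for 15 min, cAMP accumulation read by LANCE Ultra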
T2 construct: SHSY-5Y (human neuroblastoma cell line) and RG-2 (rat glioma cell line) cells endogenously express human and rat PAC1 receptors, respectively; endogenous in cells; host or cells: RG-2 rat glioma cells
T2 sequence (P32215 20-523): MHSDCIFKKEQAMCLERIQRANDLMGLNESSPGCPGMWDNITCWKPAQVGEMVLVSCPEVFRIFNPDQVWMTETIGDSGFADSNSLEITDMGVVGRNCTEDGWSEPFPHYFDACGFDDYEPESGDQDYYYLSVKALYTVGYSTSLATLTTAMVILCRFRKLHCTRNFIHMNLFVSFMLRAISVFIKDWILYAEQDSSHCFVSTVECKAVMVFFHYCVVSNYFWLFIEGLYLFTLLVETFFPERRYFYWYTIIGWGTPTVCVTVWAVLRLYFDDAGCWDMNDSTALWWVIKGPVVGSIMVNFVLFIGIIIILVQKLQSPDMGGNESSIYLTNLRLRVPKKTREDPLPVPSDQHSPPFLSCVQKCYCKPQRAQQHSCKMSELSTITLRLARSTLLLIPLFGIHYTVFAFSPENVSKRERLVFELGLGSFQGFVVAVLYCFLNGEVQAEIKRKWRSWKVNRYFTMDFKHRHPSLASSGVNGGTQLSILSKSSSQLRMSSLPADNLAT

Row | Compound | IC50 (human PAC1 receptor) | IC50 (rat PAC1 receptor)
1 | CC[C@H](C)[C@H](NC(=O)[C@H](C)NC(=O)[C@H](CCCCN)NC(=O)[C@H](CCCNC(=N)N)NC(=O)[C@H](Cc1ccccc1)NC(=O)[C@H](CCC(N)=O)NC(=O)[C@@H]1CSSC[C@H](NC(C)=O)C(=O)N[C@@H](CC(=O)O)C(=O)N[C@@H](C)C(=O)N[C@@H]([C@@H](C)O)C(=O)N1)C(=O)N[C@@H](CC(=O)O)C(=O)N[C@@H](CC(=O)O)C(=O)N[C@H]1CSSC[C@@H](C(=O)N[C@@H](CCSC)C(=O)N[C@@H](CCCCN)C(=O)N[C@@H](CCC(N)=O)C(=O)N[C@@H](CCCCN)C(=O)N[C@@H](CCCCN)C(=O)N[C@@H](CCCCN)C(=O)N[C@@H](CCC(=O)O)C(=O)N[C@@H](Cc2ccccc2)C(=O)N[C@@H](CCCCN)C(=O)N[C@@H](C)C(N)=O)NC(=O)C(C)(C)NC(=O)[C@H](CCCCN)NC(=O)[C@H](Cc2ccccc2)NC(=O)[C@H](C(C)C)NC(=O)[C@H](CO)NC(=O)CNC(=O)[C@@H]2CCCN2C(=O)[C@H](C(C)C)NC(=O)[C@H](CC(N)=O)NC(=O)[C@H](CO)NC(=O)[C@H](Cc2c[nH]cn2)NC(=O)[C@H](Cc2c[nH]cn2)NC(=O)[C@H](C)NC(=O)[C@H](CCC(N)=O)NC(=O)[C@H](CCCCN)NC(=O)[C@H](CCC(N)=O)NC1=O [SEQ ID NO 249] | 1 to 100 nM | 0.01 to 1 nM
2 | CC[C@H](C)[C@H](NC(=O)[C@H](C)NC(=O)[C@H](CCCCN)NC(=O)[C@H](CCCNC(=N)N)NC(=O)[C@H](Cc1ccccc1)NC(=O)[C@H](CCC(N)=O)NC(=O)[C@@H]1CSSC[C@H](NC(C)=O)C(=O)N[C@@H](CC(=O)O)C(=O)N[C@@H](C)C(=O)N[C@@H]([C@@H](C)O)C(=O)N1)C(=O)N[C@@H](CC(=O)O)C(=O)N[C@@H](CC(=O)O)C(=O)N[C@H]1CSSC[C@@H](C(=O)N[C@@H](CCSC)C(=O)N[C@@H](CCCCN)C(=O)N[C@@H](CCC(N)=O)C(=O)N[C@@H](CCCCN)C(=O)N[C@@H](CCCCN)C(=O)N[C@@H](CCCCN)C(=O)N[C@@H](CCC(=O)O)C(=O)N[C@@H](Cc2ccccc2)C(=O)N[C@@H](CCCCN)C(=O)N[C@@H](C)C(=O)NCC(N)=O)NC(=O)C(C)(C)NC(=O)[C@H](CCCCN)NC(=O)[C@H](Cc2ccccc2)NC(=O)[C@H](C(C)C)NC(=O)[C@H](CO)NC(=O)CNC(=O)[C@@H]2CCCN2C(=O)[C@H](C(C)C)NC(=O)[C@H](CC(N)=O)NC(=O)[C@H](CO)NC(=O)[C@H](Cc2c[nH]cn2)NC(=O)[C@H](Cc2c[nH]cn2)NC(=O)[C@H](C)NC(=O)[C@H](CCC(N)=O)NC(=O)[C@H](CCCCN)NC(=O)[C@H](CCC(N)=O)NC1=O [SEQ ID NO 253] | 0.01 to 1 nM | 0.01 to 1 nM
3 | CC[C@H](C)[C@H](NC(=O)[C@H](C)NC(=O)[C@H](CCCCN)NC(=O)[C@H](CCCNC(=N)N)NC(=O)[C@H](Cc1ccccc1)NC(=O)[C@H](CCC(N)=O)NC(=O)[C@@H]1CSSC[C@H](N)C(=O)N[C@@H](CC(=O)O)C(=O)N[C@@H](C)C(=O)N[C@@H]([C@@H](C)O)C(=O)N1)C(=O)N[C@@H](CC(=O)O)C(=O)N[C@@H](CC(=O)O)C(=O)N[C@H]1CSSC[C@@H](C(=O)N[C@@H](CCSC)C(=O)N[C@@H](CCCCN)C(=O)N[C@@H](CCC(N)=O)C(=O)N[C@@H](CCCCN)C(=O)N[C@@H](CCCCN)C(=O)N[C@@H](CCCCN)C(=O)N[C@@H](CCC(=O)O)C(=O)N[C@@H](Cc2ccccc2)C(=O)N[C@@H](CCCCN)C(=O)N[C@@H](C)C(=O)NCC(=O)N[C@@H](CCCCN)C(=O)O)NC(=O)[C@H](CCC(=O)O)NC(=O)[C@H](CCCCN)NC(=O)[C@H](Cc2ccccc2)NC(=O)[C@H](C(C)C)NC(=O)[C@H](CO)NC(=O)[C@H](CC(N)=O)NC(=O)[C@H](CO)NC(=O)[C@H](Cc2c[nH]cn2)NC(=O)[C@H](Cc2c[nH]cn2)NC(=O)[C@H](C)NC(=O)[C@H](CCC(N)=O)NC(=O)[C@H](CCCCN)NC(=O)[C@H](CCC(N)=O)NC1=O [compound 396] (H-CDATCQFRKAIDDCQKQAHHSNSVFKECMKQKKKEFKAGK-OH; disulfide 1-5, 14-28) | 1 to 100 nM | 
4 | CC[C@H](C)[C@H](NC(=O)[C@H](C)NC(=O)[C@H](CCCCN)NC(=O)[C@H](CCCNC(=N)N)NC(=O)[C@H](Cc1ccccc1)NC(=O)[C@H](CCC(N)=O)NC(=O)[C@@H]1CSSC[C@H](N)C(=O)N[C@@H](CC(=O)O)C(=O)N[C@@H](C)C(=O)N[C@@H]([C@@H](C)O)C(=O)N1)C(=O)N[C@@H](CC(=O)O)C(=O)N[C@@H](CC(=O)O)C(=O)N[C@H]1CSSC[C@@H](C(=O)N[C@@H](CCSC)C(=O)N[C@@H](CCCCN)C(=O)N[C@@H](CCC(N)=O)C(=O)N[C@@H](CCCCN)C(N)=O)NC(=O)[C@H](CCC(=O)O)NC(=O)[C@H](CCCCN)NC(=O)[C@H](Cc2ccccc2)NC(=O)[C@H](C(C)C)NC(=O)[C@H](CO)NC(=O)[C@H](CC(N)=O)NC(=O)CNC(=O)[C@@H]2CCCN2C(=O)[C@H](C(C)C)NC(=O)[C@H](CC(N)=O)NC(=O)[C@H](CO)NC(=O)[C@H](Cc2c[nH]cn2)NC(=O)[C@H](Cc2c[nH]cn2)NC(=O)[C@H](C)NC(=O)[C@H](CCC(N)=O)NC(=O)[C@H](CCCCN)NC(=O)[C@H](CCC(N)=O)NC1=O [compound 413] | 1 to 100 nM | 
5 | CDATCQFRKAIDDCKQQAHHSNVPGNSVFEKCMKQKKKEFKAGK (disulfide 1-5, 14-32) [compound 346] | > 100 nM | 
6 | CDATCQFRKAIDDCQKQAHHSNVGNSVFKECMKQKKKEFKAGK (disulfide 1-5, 14-31) [compound 398] | 1 to 100 nM | 
7 | CDATCQFRKAIDDCQKQAHHSNVPGNSFKECMKQKKKEFKAGK (disulfide 1-5, 14-31) [compound 363] | 1 to 100 nM | 
8 | CDATCQFRKAIDDCQKQAHHSNVPGNSVKECMKQKKKEFKAGK (disulfide 1-5, 14-31) [compound 362] | > 100 nM | 
9 | CDATCQFRKAIDDCQKQAHHSNVPGSVFKACMKQKKKEFKAGA (disulfide 1-5, 14-31) [compound 175] |  | 0.01 to 1 nM
10 | CDATCQFRKAIDDCQKQAHHSNVPGSVFKACMKQKKKEFKAGE (disulfide 1-5, 14-31) [compound 173] |  | 0.01 to 1 nM
11 | CDATCQFRKAIDDCQKQAHHSNVPGSVFKACMKQKKKEFKAGF (disulfide 1-5, 14-31) [compound 172] |  | 0.01 to 1 nM
12 | CDATCQFRKAIDDCQKQAHHSNVPGSVFKACMKQKKKEFKAGGGGS (disulfide 1-5, 14-31) [compound 177] |  | 0.01 to 1 nM
13 | CDATCQFRKAIDDCQKQAHHSNVPGSVFKACMKQKKKEFKAGH (disulfide 1-5, 14-31) [compound 171] |  | 0.01 to 1 nM
14 | CDATCQFRKAIDDCQKQAHHSNVPGSVFKACMKQKKKEFKAGK (disulfide 1-5, 14-31) [compound 182] |  | 0.01 to 1 nM
15 | CDATCQFRKAIDDCQKQAHHSNVPGSVFKACMKQKKKEFKAGR (disulfide 1-5, 14-31) [compound 170] |  | 0.01 to 1 nM
16 | CDATCQFRKAIDDCQKQAHHSNVPGSVFKACMKQKKKEFKAGY (disulfide 1-5, 14-31) [compound 164] |  | 0.01 to 1 nM
17 | CDATCQFRKAIDDCQKQAHHSNVPGSVFKACMKQKKKEFKAN (disulfide 1-5, 14-31) [compound 202] |  | 0.01 to 1 nM
18 | CDATCQFRKAIDDCQKQAHHSNVPGSVFKACMKQKKKEFKAN-NH2 (disulfide 1-5, 14-31) [compound 205] |  | 0.01 to 1 nM
19 | CDATCQFRKAIDDCQKQAHHSNVPGSVFKECMKQKKKEFKAGK (disulfide 1-5, 14-31) [compound 364] | 1 to 100 nM | 
20 | CDATCQFRKAIDDCQKQAHHSNVPGSVFKSCMKQKKKEFKAG-NH2 (disulfide 1-5, 14-31) [compound 207] |  | 0.01 to 1 nM
21 | CDATCQFRKAIDDCQKQAHHSNVPNSVFKECMKQKKKEFKAGK (disulfide 1-5, 14-31) [compound 365] | 1 to 100 nM | 
22 | CDATCQFRKAIDDCQKQAHHSNVSVFKECMKQKKKEFKAGK (disulfide 1-5, 14-29) [compound 397] | 1 to 100 nM | 
23 | CDATCQFRKCIDDWQKQAHHSNVPGSVFKARMKQCKKEFKAG-NH2 (disulfide 1-5, 10-35) [compound 176] |  | 1 to 100 nM
24 | GSCDATCQFRKAIDDCQKQAHHSNVPGSVFKACMKQKKKEFKAG-NH2 (disulfide 3-7, 16-33) [compound 185] |  | 0.01 to 1 nM
25 | MCDATCQFRKAIDDCQKQAHHSNVPGSVFKACMKQKKKEFKAGHHHHH (disulfide 2-6, 15-32) [compound 199] |  | 0.01 to 1 nM
26 | MCDATCQFRKAIDDCQKQAHHSNVPGSVFKACMKQKKKEFKAGHHHHHH (disulfide 2-6, 15-32) [compound 204] |  | 0.01 to 1 nM
